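Method: 48-hour compound exposure of cells in 96-well plates, five concentrations, linear interpolation of endpoints. GI50 = concentration required for 50% inhibition of growth.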 Activity calls are given as the source filed them. Rule as the data show it: active = GI50 up to about 1.1 µM and inactive = higher.
Assays:
Experiment in all cases: inhibition of tumour cell growth, NCI panel, 48 h
786-0 = system: 786-0
A498 = system: A498
A549 = system: A549
ACHN = system: ACHN
CAKI-1 = system: CAKI-1
CCRF-CEM = system: CCRF-CEM
COLO 205 = system: COLO 205
DLD-1 = system: DLD-1
DMS-114 = system: DMS-114
DMS-273 = system: DMS-273
EKVX = system: EKVX
HCC 2998 = system: HCC 2998
HCT-116 = system: HCT-116
HCT-15 = system: HCT-15
HL-60 = system: HL-60
HOP-18 = system: HOP-18
HOP-62 = system: HOP-62
HT-29 = system: HT-29
IGROV-1 = system: IGROV-1
K562 = system: K562
KM-20L2 = system: KM-20L2
KM12 = system: KM12
LOX IMVI = system: LOX IMVI
LXFL 529 = system: LXFL 529
M14 = system: M14
M19-MEL = system: M19-MEL
MOLT-4 = system: MOLT-4
Malme-3M = system: Malme-3M
NCI-H226 = system: NCI-H226
NCI-H23 = system: NCI-H23
NCI-H460 = system: NCI-H460
NCI-H522 = system: NCI-H522
OVCAR-3 = system: OVCAR-3
OVCAR-4 = system: OVCAR-4
OVCAR-5 = system: OVCAR-5
RPMI-8226 = system: RPMI-8226
RXF 393 = system: RXF 393
RXF 631 = system: RXF 631
SF-268 = system: SF-268
SF-295 = system: SF-295
SF-539 = system: SF-539
SK-MEL-28 = system: SK-MEL-28
SK-MEL-2 = system: SK-MEL-2
SK-MEL-5 = system: SK-MEL-5
SK-OV-3 = system: SK-OV-3
SN12C = system: SN12C
SNB-19 = system: SNB-19
SNB-75 = system: SNB-75
SNB-78 = system: SNB-78
SR = system: SR
SW-620 = system: SW-620
TK-10 = system: TK-10
U-251 = system: U-251
UACC-257 = system: UACC-257
UACC-62 = system: UACC-62
UO-31 = system: UO-31
HOP-92 = system: HOP-92
OVCAR-8 = system: OVCAR-8
XF498 = system: XF498

C=CCCCCCCCCCCCC1CCC(CC)N1 (stereo unspecified)
GI50 (786-0): 9.1 µM (inactive) | GI50 (A498): 19.5 µM (inactive) | GI50 (A549): 10.3 µM (inactive) | GI50 (ACHN): 15.7 µM (inactive) | GI50 (CAKI-1): 11.2 µM (inactive) | GI50 (CCRF-CEM): 8.3 µM (inactive) | GI50 (COLO 205): 3.37 µM (inactive) | GI50 (DLD-1): 3.72 µM (inactive) | GI50 (DMS-114): 5 µM (inactive) | GI50 (DMS-273): 2.33 µM (inactive) | GI50 (EKVX): 15.5 µM (inactive) | GI50 (HCC 2998): 3.37 µM (inactive) | GI50 (HCT-116): 6.04 µM (inactive) | GI50 (HCT-15): 3.4 µM | GI50 (HL-60): 3.05 µM (inactive) | GI50 (HOP-18): 12.6 µM (inactive) | GI50 (HOP-62): 12.3 µM (inactive) | GI50 (HT-29): 3.67 µM (inactive) | GI50 (IGROV-1): 10.1 µM (inactive) | GI50 (K562): 4.7 µM (inactive) | GI50 (KM-20L2): 4.04 µM (inactive) | GI50 (KM12): 3.87 µM (inactive) | GI50 (LOX IMVI): 9.66 µM (inactive) | GI50 (LXFL 529): 12.7 µM (inactive) | GI50 (M14): 12.1 µM (inactive) | GI50 (M19-MEL): 5.15 µM (inactive) | GI50 (MOLT-4): 4.06 µM (inactive) | GI50 (Malme-3M): 16.3 µM (inactive) | GI50 (NCI-H226): 28.5 µM (inactive) | GI50 (NCI-H23): 14.4 µM (inactive) | GI50 (NCI-H460): 17.7 µM (inactive) | GI50 (NCI-H522): 3.78 µM (inactive) | GI50 (OVCAR-3): 9.44 µM (inactive) | GI50 (OVCAR-4): 4.79 µM (inactive) | GI50 (OVCAR-5): 10.6 µM (inactive) | GI50 (RPMI-8226): 8.28 µM (inactive) | GI50 (RXF 393): 4.86 µM (inactive) | GI50 (RXF 631): 6.19 µM (inactive) | GI50 (SF-268): 20.6 µM (inactive) | GI50 (SF-295): 13.8 µM (inactive) | GI50 (SF-539): 10.6 µM (inactive) | GI50 (SK-MEL-28): 15.7 µM (inactive) | GI50 (SK-MEL-2): 13.2 µM (inactive) | GI50 (SK-MEL-5): 10.2 µM (inactive) | GI50 (SK-OV-3): 15.1 µM (inactive) | GI50 (SN12C): 11.5 µM (inactive) | GI50 (SNB-19): 15.5 µM (inactive) | GI50 (SNB-75): 14.4 µM (inactive) | GI50 (SNB-78): 14.9 µM (inactive) | GI50 (SR): 2.47 µM (inactive) | GI50 (SW-620): 11.4 µM (inactive) | GI50 (TK-10): 16.8 µM (inactive) | GI50 (U-251): 10.9 µM (inactive) | GI50 (UACC-257): 13.9 µM (inactive) | GI50 (UACC-62): 14.2 µM (inactive) | GI50 (UO-31): 11.2 µM (inactive)

CC(C)S(=O)(=O)ON1C(=O)c2ccc([N+](=O)[O-])cc2C1=O
GI50 (786-0): > 100 µM (inactive) | GI50 (A498): > 100 µM (inactive) | GI50 (A549): > 100 µM (inactive) | GI50 (ACHN): > 100 µM (inactive) | GI50 (CAKI-1): > 100 µM (inactive) | GI50 (CCRF-CEM): > 100 µM (inactive) | GI50 (COLO 205): > 100 µM (inactive) | GI50 (DLD-1): > 100 µM (inactive) | GI50 (DMS-114): > 100 µM (inactive) | GI50 (DMS-273): > 100 µM (inactive) | GI50 (EKVX): > 100 µM (inactive) | GI50 (HCC 2998): > 100 µM (inactive) | GI50 (HCT-116): > 100 µM (inactive) | GI50 (HCT-15): > 100 µM | GI50 (HL-60): > 100 µM (inactive) | GI50 (HOP-18): > 100 µM (inactive) | GI50 (HOP-62): > 100 µM (inactive) | GI50 (HOP-92): 41.9 µM (inactive) | GI50 (HT-29): > 100 µM (inactive) | GI50 (IGROV-1): > 100 µM (inactive) | GI50 (K562): > 100 µM (inactive) | GI50 (KM12): > 100 µM (inactive) | GI50 (LXFL 529): > 100 µM (inactive) | GI50 (M14): > 100 µM (inactive) | GI50 (M19-MEL): > 100 µM (inactive) | GI50 (Malme-3M): > 100 µM (inactive) | GI50 (NCI-H226): > 100 µM (inactive) | GI50 (NCI-H23): > 100 µM (inactive) | GI50 (NCI-H460): > 100 µM (inactive) | GI50 (NCI-H522): > 100 µM (inactive) | GI50 (OVCAR-3): > 100 µM (inactive) | GI50 (OVCAR-4): > 100 µM (inactive) | GI50 (OVCAR-5): > 100 µM (inactive) | GI50 (OVCAR-8): > 100 µM (inactive) | GI50 (RXF 393): > 100 µM (inactive) | GI50 (RXF 631): > 100 µM (inactive) | GI50 (SF-268): > 100 µM (inactive) | GI50 (SF-295): > 100 µM (inactive) | GI50 (SF-539): > 100 µM (inactive) | GI50 (SK-MEL-28): > 100 µM (inactive) | GI50 (SK-MEL-2): > 100 µM (inactive) | GI50 (SK-MEL-5): > 100 µM (inactive) | GI50 (SK-OV-3): > 100 µM (inactive) | GI50 (SN12C): > 100 µM (inactive) | GI50 (SNB-19): > 100 µM (inactive) | GI50 (SNB-75): > 100 µM (inactive) | GI50 (SNB-78): > 100 µM (inactive) | GI50 (SR): > 100 µM (inactive) | GI50 (SW-620): > 100 µM (inactive) | GI50 (TK-10): > 100 µM (inactive) | GI50 (U-251): > 100 µM (inactive) | GI50 (UACC-257): > 100 µM (inactive) | GI50 (UACC-62): > 100 µM (inactive) | GI50 (UO-31): > 100 µM (inactive) | GI50 (XF498): > 100 µM (inactive)

Source: ChEMBL document CHEMBL1201862, “PubChem BioAssay data set” (2004)
